Drawing on ChEMBL document CHEMBL5465560, “Selectivity Literature for EUbOPEN Chemogenomic Library” (2024), this text covers % of control and % of inhibition for eight compounds.

Assay [1] addresses T1, Kinase suppressor of Ras 2 (Homo sapiens) (UniProt Q6VAB6).
T1 sequence (whole entry): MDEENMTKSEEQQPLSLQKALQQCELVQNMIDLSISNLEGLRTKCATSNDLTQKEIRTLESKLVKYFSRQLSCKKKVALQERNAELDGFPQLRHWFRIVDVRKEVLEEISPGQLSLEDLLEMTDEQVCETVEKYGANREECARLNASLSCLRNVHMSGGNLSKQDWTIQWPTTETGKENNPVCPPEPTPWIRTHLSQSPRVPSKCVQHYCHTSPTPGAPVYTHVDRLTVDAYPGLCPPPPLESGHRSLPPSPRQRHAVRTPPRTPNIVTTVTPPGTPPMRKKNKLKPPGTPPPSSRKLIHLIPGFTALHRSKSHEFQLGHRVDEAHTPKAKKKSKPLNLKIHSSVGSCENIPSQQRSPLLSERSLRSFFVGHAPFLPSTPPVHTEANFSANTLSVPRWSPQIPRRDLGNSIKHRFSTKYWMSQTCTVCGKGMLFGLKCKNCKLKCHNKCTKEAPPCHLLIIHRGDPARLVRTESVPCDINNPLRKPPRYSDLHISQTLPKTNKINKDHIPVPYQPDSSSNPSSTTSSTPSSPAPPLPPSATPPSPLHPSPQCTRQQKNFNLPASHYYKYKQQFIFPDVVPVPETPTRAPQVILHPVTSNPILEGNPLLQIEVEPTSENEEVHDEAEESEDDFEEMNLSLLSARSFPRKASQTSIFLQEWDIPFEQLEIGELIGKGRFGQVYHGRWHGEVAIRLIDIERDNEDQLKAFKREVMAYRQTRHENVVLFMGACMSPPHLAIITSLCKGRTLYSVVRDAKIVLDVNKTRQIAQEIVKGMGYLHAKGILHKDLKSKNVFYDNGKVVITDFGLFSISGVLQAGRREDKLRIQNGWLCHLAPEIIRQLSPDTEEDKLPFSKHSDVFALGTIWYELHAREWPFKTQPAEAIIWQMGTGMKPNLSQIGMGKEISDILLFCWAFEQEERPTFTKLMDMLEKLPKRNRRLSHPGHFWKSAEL
In words: Selectivity interaction (Kinase panel (Z-LYTE Assay)) EUB0001632a KSR2. The note with it: at 10 µM.

Assay [2] concerns the target Serine/threonine-protein kinase Nek7 (Homo sapiens) (UniProt Q8TDX7). In words: Selectivity interaction (ActivX KiNativ screen (ex vivo kinase selectivity in human PBMCs)) EUB0001619a NEK7. The note with it: PBMC, at 1 µM. In kind it is cell-based.
For assay [3], the target named is Tyrosine-protein kinase ABL2 (Homo sapiens, UniProt P42684). To be noted: at 10 µM.
Chain of Tyrosine-protein kinase ABL2 (P42684 whole entry): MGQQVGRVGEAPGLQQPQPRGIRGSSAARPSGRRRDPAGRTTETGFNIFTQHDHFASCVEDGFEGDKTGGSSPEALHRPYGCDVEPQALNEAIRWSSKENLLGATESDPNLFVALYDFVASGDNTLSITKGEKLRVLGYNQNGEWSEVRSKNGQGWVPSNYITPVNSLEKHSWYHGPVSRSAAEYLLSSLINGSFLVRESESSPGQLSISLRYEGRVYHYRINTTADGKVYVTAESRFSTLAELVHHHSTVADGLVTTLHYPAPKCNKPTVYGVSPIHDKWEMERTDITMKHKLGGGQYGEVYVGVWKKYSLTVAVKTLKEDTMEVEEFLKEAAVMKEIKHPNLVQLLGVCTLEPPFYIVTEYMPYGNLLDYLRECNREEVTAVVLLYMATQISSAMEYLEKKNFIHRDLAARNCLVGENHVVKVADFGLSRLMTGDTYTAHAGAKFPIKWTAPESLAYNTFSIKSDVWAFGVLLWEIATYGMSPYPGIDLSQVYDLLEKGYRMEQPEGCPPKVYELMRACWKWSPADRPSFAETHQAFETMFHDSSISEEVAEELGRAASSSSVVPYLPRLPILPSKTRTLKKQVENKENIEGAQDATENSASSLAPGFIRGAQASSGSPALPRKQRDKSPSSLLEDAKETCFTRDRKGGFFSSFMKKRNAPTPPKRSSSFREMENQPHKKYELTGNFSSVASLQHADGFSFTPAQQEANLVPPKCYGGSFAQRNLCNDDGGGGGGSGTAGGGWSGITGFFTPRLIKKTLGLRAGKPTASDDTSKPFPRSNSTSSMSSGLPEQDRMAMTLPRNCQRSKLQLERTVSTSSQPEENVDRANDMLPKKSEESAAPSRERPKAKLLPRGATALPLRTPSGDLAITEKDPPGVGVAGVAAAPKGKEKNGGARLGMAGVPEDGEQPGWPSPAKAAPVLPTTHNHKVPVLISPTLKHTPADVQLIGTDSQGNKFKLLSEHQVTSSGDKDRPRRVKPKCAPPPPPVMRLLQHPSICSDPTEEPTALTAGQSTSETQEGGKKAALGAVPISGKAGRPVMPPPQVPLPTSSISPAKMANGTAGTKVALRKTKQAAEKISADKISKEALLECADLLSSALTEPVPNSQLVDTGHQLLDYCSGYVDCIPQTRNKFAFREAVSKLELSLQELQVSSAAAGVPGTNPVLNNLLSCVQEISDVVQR
Assay [4] concerns the target Glycogen synthase kinase-3 beta (Homo sapiens, UniProt P49841). In words: Selectivity interaction (KinomeScan (DiscoverX)) EUB0000666a GSK3B. To be noted: at 10 µM.
The target in assay [5] is Cyclin-dependent kinase 15 (Homo sapiens) (UniProt Q96Q40). In words: Selectivity interaction (KinomeScan (DiscoverX)) EUB0000666a CDK15. To be noted: at 10 µM.
Chain of Cyclin-dependent kinase 15 (Homo sapiens) (Q96Q40 whole entry): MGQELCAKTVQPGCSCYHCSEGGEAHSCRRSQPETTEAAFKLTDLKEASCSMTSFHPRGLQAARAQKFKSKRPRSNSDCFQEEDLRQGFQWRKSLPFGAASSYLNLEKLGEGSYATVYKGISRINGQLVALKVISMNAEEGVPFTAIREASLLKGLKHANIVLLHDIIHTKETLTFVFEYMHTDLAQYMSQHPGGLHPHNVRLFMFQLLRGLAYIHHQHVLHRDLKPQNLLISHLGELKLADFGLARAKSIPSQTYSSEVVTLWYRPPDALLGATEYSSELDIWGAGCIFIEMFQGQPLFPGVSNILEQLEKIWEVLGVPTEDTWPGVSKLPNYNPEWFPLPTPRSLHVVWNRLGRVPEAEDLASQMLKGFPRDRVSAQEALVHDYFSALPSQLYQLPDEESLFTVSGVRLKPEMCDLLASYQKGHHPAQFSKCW
The target of assay [6] is Serine/threonine-protein kinase 26 (Homo sapiens, UniProt Q9P289). In words: Selectivity interaction (SelectScreen profiling (Invitrogen)) EUB0000607a STK26. To be noted: at 2 µM.
Chain of Serine/threonine-protein kinase 26 (Q9P289 2-416 limits assumed): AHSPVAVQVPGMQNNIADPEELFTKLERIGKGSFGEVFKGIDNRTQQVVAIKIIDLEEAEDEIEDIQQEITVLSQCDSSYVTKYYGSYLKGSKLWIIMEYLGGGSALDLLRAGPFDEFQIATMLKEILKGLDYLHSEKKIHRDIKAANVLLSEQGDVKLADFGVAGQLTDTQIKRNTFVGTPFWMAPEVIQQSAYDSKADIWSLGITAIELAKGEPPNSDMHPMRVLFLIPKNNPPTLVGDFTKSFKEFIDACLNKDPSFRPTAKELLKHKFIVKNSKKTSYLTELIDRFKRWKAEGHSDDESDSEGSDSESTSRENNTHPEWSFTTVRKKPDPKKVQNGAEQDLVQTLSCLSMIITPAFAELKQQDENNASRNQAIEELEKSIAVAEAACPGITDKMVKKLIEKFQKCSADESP
In assay [7] the target is Serine/threonine-protein kinase pim-3 (Homo sapiens) (UniProt Q86V86). In words: Selectivity interaction (KinomeScan (DiscoverX)) EUB0000607a PIM3. The note with it: at 10 µM.
In assay [8] the target is T2, Serine/threonine-protein kinase ULK3 (Homo sapiens) (UniProt Q6PHR2).
T2 sequence (whole entry): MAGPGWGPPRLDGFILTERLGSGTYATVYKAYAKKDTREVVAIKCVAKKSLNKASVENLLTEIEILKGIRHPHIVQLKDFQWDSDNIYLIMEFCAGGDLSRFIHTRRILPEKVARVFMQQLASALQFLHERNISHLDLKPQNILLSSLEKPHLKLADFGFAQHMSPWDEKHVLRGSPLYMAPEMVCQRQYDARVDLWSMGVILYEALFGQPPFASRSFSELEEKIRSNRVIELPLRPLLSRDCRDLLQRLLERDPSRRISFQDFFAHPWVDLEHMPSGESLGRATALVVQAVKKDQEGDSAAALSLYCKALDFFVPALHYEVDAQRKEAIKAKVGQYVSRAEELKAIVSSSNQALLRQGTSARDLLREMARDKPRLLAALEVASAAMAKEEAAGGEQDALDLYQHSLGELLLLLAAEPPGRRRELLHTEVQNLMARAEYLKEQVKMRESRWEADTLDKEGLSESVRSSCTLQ
In words: Selectivity interaction (KinomeScan (DiscoverX)) EUB0001049a ULK3. The note with it: at 1 µM.

Assay [9] addresses LIM domain kinase 2 (Homo sapiens) (UniProt P53671). In words: Selectivity interaction (KinomeScan (DiscoverX)) EUB0000092b LIMK2. To be noted: at 10 µM.
Assay [10] addresses T3, Protein kinase C zeta type (Homo sapiens) (UniProt Q05513).
T3 sequence (whole entry): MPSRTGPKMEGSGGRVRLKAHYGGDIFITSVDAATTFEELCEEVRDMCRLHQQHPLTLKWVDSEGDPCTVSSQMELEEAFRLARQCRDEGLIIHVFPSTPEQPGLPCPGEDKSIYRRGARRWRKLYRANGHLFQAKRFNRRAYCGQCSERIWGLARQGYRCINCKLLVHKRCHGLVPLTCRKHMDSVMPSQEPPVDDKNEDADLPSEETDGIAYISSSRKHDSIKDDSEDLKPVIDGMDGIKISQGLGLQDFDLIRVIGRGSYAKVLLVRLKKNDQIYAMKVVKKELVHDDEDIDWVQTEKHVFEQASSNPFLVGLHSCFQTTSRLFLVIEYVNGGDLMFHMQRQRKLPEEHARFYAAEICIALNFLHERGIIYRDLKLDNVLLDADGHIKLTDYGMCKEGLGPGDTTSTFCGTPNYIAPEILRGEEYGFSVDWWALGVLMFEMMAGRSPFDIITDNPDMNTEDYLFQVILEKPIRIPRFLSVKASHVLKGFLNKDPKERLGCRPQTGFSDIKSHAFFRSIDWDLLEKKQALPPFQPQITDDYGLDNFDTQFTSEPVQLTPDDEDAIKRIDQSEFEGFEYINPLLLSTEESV
In words: Selectivity interaction (Millipore kinase profiler) EUB0000124b PRKCZ. To be noted: at 10 µM.

SMILES strings stand for the structures.

Chain of Serine/threonine-protein kinase Nek7 (Homo sapiens) (Q8TDX7 whole entry, looked up): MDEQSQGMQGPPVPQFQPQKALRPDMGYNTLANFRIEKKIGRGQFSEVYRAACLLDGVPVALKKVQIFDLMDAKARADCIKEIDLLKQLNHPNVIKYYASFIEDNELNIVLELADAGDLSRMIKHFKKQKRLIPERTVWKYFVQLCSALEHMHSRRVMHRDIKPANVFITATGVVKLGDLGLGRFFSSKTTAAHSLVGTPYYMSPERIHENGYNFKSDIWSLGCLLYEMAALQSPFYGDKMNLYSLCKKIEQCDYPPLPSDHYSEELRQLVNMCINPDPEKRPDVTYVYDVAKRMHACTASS
Chain of LIM domain kinase 2 (Homo sapiens) (P53671 whole entry, looked up, the tested form may be a part): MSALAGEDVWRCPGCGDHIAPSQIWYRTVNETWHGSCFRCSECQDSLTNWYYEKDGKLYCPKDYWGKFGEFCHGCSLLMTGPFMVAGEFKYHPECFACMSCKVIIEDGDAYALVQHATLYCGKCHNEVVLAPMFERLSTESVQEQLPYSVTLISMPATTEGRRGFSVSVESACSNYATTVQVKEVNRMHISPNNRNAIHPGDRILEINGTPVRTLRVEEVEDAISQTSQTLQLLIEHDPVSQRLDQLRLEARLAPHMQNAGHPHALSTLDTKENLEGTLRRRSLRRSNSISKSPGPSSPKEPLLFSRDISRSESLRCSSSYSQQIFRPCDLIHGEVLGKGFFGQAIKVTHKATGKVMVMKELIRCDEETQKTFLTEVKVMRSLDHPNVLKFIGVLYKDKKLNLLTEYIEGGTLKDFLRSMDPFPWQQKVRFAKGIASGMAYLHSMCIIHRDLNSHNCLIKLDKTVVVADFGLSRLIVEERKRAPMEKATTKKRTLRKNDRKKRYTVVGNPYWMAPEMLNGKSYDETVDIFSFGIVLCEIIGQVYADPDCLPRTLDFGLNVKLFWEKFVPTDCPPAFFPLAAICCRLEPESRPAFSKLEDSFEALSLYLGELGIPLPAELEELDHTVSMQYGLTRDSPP
Chain of Glycogen synthase kinase-3 beta (P49841 whole entry, looked up): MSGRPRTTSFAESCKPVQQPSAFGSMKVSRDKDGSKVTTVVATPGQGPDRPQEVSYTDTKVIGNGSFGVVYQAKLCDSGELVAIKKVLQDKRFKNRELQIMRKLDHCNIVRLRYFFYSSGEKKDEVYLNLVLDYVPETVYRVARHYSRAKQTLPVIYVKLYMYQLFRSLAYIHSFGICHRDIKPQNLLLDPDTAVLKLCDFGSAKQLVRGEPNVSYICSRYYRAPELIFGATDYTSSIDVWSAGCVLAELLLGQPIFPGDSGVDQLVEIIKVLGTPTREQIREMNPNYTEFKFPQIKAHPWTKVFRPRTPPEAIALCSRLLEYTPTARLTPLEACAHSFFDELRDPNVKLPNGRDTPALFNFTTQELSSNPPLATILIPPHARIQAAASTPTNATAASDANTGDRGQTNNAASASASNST

As for `Cn1cc(-n2cnc3c(NCc4nc5cc(Cl)c(Cl)cc5[nH]4)nc(N4CCOCC4)nc32)cn1`, the % of control in assay [1] is 1.65%.

For the compound `N#Cc1cccc(-c2c[nH]c3ncnc(N4CCOCC4)c23)c1`, the % of inhibition in assay [2] is -5%.

`CCN(CC)CCCCNc1ncc2cc(-c3cc(OC)cc(OC)c3)c(NC(=O)NC(C)(C)C)nc2n1` displayed a % of control in assay [3] of 100%.

Take `O=C(NOC[C@H](O)CO)c1ccc(F)c(F)c1Nc1ccc(I)cc1F`: the % of control came out at 68% in assay [4] and 78% in [5].

As for `CNC(=O)Nc1ccc(-c2nc(N3CC4CCC(C3)O4)c3cnn(C4CCC5(CC4)OCCO5)c3n2)cc1`, in assay [6], the % of inhibition is 7%. Besides, in [7], the % of control came to 100%.

In turn, `COc1cc(Nc2nc(C)cc(-c3cnn4nc(OC)ccc34)n2)cc(C(F)(F)F)c1` registered a % of control in assay [8] of 79%.

In assay [9], `CCC(=O)N1CCN(c2ccc(-n3c(=O)ccc4cnc5ccc(-c6cnc7ccccc7c6)cc5c43)cc2C(F)(F)F)CC1` showed a % of control of 4.8%.

`CC(=O)Nc1cccc(-n2c(=O)n(C3CC3)c(=O)c3c(Nc4ccc(I)cc4F)n(C)c(=O)c(C)c32)c1` had a % of control in assay [10] of 102%.
